These results are taken from ChEMBL document CHEMBL4041521, “3-Aroylindoles display antitumor activity in vitro and in vivo: Effects of N1-substituents on biological activity” (Eur J Med Chem, 2017).

Calls of active or inactive are those of the source. The calls are words filed in the database; no cut-off is given here.

The target in one experiment is Histone deacetylase 5 (Homo sapiens, UniProt Q9UQL6). Put plainly: Inhibition of recombinant human HDAC5 using fluorogenic substrate by fluorescence assay.
A further experiment has as its target Histone deacetylase 2 (Homo sapiens, UniProt Q92769). Put plainly: Inhibition of recombinant human HDAC2 using fluorogenic substrate by fluorescence assay.
A further experiment addresses Histone deacetylase 3 (Homo sapiens, UniProt O15379). Put plainly: Inhibition of recombinant human HDAC3 using fluorogenic substrate by fluorescence assay.
The target of experiment [1] is T1, Polyamine deacetylase HDAC10 (Homo sapiens, UniProt Q969S8).
T1 sequence (Q969S8 whole entry): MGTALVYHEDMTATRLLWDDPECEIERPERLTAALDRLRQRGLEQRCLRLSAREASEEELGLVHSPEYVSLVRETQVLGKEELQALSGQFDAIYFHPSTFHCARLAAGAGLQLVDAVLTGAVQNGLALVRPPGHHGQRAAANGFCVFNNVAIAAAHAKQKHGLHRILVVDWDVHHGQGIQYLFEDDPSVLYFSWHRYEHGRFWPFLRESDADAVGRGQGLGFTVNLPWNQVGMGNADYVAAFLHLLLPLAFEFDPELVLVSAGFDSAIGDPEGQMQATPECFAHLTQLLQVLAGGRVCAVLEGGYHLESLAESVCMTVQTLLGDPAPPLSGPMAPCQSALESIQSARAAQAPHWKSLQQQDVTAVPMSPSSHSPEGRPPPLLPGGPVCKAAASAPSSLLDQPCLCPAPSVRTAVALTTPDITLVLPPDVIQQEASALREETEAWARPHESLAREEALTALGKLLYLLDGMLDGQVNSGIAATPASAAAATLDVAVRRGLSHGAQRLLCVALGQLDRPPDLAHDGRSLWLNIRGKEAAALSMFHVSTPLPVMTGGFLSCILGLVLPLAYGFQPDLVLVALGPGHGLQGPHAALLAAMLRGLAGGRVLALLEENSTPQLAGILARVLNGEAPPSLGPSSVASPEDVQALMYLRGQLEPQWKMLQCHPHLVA
Put plainly: Inhibition of recombinant human HDAC10 using fluorogenic substrate by fluorescence assay.

The next experiment addresses Histone deacetylase 1 (Homo sapiens, UniProt Q13547). Put plainly: Inhibition of recombinant human HDAC1 using fluorogenic substrate by fluorescence assay.
The target in the next experiment is Histone deacetylase 4 (Homo sapiens, UniProt P56524). Put plainly: Inhibition of recombinant human HDAC4 using fluorogenic substrate by fluorescence assay.
The target in experiment [2] is T2, Protein deacetylase HDAC6 (Homo sapiens, UniProt Q9UBN7).
T2 sequence (Q9UBN7 whole entry): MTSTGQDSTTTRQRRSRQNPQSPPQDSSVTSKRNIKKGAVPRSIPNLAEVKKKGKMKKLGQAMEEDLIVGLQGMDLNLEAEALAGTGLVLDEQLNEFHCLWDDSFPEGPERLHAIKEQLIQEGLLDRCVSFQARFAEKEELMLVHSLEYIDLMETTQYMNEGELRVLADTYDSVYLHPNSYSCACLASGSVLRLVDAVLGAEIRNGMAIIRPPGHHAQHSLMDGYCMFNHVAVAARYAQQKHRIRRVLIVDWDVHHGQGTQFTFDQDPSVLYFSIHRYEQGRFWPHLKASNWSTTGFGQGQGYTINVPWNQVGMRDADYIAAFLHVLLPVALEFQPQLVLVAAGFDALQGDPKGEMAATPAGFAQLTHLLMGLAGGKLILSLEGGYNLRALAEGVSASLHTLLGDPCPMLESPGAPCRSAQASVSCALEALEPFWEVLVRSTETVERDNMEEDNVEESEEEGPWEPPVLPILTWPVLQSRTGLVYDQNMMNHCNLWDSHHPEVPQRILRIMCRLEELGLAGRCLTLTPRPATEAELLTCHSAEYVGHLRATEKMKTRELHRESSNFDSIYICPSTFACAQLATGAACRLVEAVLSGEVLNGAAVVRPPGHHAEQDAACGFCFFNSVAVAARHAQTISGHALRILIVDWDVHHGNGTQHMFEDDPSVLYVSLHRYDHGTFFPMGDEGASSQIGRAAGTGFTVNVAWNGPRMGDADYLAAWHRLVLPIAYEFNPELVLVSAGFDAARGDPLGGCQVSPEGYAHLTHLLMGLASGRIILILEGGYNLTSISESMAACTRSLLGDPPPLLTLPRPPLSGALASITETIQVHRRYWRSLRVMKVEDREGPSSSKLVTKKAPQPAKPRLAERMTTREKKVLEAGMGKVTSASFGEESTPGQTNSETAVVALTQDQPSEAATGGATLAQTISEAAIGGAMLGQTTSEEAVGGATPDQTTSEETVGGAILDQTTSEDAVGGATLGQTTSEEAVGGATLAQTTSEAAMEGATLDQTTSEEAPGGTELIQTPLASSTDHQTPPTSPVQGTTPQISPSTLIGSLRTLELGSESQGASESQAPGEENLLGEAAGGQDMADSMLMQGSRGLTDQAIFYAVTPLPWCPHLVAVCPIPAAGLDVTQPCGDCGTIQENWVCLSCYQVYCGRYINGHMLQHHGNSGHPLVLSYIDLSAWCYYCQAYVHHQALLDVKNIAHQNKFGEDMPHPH
Put plainly: Inhibition of recombinant human HDAC6 using fluorogenic substrate by fluorescence assay.

The target of another experiment is T3, Histone deacetylase 11 (Homo sapiens, UniProt Q96DB2).
T3 sequence (Q96DB2 whole entry): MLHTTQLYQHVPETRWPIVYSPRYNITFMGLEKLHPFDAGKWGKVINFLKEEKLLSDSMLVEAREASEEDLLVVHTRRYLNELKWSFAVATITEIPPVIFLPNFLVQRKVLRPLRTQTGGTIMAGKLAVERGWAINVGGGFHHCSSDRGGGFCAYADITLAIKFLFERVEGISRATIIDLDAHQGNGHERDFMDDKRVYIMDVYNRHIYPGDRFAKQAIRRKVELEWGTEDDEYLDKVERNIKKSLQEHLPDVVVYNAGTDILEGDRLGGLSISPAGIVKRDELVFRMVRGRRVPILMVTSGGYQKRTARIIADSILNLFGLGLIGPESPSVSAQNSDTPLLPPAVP
Put plainly: Inhibition of recombinant human HDAC11 using fluorogenic substrate by fluorescence assay.

For the next experiment, the system named is A549. Put plainly: Antiproliferative activity against human A549 cells measured after 48 hrs by sulforhodamine-B assay. The format is functional, cell-based. Conditions: A549, 48 h. In general terms: The SRB assay estimates cell density from bound dye.
For another experiment, the species on record is Homo sapiens. Put plainly: Inhibition of tubulin polymerization in human PC3 cells assessed as […] in MPM2 expression at 0.01 to 10 uM by Western blot analysis. Type of experiment: cell-based.

Chain of Histone deacetylase 5 (Q9UQL6 whole entry): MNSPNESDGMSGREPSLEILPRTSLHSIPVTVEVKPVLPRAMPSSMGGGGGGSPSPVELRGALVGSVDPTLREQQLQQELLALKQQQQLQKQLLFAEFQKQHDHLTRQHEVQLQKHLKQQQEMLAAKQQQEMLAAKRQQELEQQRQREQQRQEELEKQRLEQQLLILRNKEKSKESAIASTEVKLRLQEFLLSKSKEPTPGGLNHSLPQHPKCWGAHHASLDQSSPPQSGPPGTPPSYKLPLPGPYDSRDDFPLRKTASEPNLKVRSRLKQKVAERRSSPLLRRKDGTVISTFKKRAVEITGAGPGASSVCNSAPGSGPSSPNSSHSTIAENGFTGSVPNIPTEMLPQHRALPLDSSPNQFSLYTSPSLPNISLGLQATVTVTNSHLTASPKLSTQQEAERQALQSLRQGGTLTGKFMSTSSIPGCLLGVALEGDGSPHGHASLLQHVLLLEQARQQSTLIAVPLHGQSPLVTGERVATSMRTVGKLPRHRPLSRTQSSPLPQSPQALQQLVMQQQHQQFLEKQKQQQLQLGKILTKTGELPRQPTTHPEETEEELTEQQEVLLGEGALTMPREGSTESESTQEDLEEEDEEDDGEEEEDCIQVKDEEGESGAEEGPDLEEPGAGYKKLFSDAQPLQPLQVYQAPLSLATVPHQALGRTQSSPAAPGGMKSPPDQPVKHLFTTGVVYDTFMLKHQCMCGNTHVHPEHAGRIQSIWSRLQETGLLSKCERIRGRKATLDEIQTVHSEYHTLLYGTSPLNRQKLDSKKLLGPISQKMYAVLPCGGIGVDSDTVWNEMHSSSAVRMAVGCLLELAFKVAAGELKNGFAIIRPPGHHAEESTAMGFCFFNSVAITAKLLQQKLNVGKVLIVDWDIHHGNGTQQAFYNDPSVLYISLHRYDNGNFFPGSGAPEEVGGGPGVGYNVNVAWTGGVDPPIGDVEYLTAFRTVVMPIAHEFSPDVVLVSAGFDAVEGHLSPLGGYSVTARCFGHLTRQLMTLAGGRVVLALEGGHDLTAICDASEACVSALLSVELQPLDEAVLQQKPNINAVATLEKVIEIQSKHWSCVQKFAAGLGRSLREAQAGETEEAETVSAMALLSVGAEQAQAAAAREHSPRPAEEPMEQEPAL
Chain of Histone deacetylase 4 (P56524 whole entry): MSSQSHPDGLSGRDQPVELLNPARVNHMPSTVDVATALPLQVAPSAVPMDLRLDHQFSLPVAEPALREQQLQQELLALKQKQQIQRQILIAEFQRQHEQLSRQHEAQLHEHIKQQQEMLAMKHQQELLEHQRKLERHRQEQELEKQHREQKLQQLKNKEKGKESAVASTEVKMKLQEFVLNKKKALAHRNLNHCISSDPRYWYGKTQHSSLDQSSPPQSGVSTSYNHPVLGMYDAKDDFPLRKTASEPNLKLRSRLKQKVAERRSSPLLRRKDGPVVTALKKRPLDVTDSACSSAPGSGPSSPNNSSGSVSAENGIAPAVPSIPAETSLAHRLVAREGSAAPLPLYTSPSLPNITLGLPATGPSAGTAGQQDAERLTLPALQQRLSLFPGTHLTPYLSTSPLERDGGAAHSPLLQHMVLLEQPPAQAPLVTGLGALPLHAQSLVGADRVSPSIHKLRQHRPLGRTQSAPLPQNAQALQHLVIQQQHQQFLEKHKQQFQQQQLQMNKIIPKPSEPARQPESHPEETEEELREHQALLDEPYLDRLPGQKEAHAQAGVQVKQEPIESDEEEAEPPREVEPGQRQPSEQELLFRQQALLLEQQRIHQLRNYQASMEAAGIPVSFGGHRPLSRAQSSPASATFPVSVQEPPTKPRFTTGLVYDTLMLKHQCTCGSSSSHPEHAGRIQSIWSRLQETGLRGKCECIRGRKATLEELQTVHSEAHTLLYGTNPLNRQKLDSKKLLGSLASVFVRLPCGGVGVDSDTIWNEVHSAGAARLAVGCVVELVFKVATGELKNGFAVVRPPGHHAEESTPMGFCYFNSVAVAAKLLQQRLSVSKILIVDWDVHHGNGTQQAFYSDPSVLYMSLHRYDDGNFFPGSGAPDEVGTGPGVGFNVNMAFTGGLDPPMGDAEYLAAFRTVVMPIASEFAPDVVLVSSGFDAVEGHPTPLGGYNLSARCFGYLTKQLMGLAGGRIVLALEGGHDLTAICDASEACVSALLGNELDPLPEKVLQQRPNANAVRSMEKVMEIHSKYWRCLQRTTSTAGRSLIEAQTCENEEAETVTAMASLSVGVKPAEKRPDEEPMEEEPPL
Chain of Histone deacetylase 3 (O15379 whole entry): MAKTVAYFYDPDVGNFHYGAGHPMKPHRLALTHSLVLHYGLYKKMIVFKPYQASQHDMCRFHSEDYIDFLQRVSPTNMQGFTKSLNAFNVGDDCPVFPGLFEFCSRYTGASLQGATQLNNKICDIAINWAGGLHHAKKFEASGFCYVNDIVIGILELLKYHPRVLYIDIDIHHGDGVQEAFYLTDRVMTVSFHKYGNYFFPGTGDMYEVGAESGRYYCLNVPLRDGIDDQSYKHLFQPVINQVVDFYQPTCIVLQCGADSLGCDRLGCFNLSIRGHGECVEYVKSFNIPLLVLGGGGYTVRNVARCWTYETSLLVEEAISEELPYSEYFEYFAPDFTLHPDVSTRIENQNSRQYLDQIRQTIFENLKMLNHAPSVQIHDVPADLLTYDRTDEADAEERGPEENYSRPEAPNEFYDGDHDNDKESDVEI
Chain of Histone deacetylase 2 (Q92769 whole entry): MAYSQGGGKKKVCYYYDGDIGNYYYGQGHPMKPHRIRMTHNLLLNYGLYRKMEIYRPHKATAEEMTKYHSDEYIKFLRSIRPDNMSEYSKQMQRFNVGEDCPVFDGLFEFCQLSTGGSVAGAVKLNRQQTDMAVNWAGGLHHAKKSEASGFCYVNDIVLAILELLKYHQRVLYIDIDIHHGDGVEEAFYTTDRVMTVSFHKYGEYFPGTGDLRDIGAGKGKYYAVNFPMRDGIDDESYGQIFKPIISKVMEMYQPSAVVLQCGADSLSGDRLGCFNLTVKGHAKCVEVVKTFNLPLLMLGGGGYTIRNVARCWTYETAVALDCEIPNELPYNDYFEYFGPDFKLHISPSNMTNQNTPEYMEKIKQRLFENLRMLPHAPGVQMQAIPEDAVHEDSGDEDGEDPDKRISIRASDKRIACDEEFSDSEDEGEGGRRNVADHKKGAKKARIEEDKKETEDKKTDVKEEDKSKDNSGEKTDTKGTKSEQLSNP
Chain of Histone deacetylase 1 (Q13547 whole entry): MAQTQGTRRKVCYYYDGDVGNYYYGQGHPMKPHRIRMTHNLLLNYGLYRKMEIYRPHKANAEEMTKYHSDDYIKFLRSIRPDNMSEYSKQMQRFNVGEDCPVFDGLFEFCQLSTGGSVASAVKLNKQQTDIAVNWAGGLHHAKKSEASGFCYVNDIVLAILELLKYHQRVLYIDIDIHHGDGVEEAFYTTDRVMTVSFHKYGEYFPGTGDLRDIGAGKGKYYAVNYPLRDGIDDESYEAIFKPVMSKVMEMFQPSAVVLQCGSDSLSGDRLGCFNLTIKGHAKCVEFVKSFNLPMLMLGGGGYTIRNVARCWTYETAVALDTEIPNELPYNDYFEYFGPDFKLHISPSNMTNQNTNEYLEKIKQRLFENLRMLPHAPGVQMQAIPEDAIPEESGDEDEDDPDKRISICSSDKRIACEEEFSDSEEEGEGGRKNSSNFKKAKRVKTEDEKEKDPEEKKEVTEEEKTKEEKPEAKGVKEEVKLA

Usually IC50 stands for the concentration that inhibits the measured activity by half. Consider `COc1ccc2c(C(=O)c3cc(OC)c(OC)c(OC)c3)cn(S(=O)(=O)c3cccc(/C=C/C(=O)NO)c3)c2c1`, for which the IC50 on Histone deacetylase 5 was 356000 nM; on Histone deacetylase 2, 3220 nM; at Histone deacetylase 3, “Not Active”; in [1], “Not Active”; at Histone deacetylase 1, 468 nM; at Histone deacetylase 4, “Not Active”. Besides, the results for the IC50 (in [2]; on Histone deacetylase 11; in the experiment on A549) were 275 nM, 8870 nM and 72.5 nM, respectively. In addition, the inhibition result in the experiment filed under Homo sapiens is “Active”.

Take `COc1ccc2c(C(=O)c3cc(OC)c(OC)c(OC)c3)cn(Cc3ccc(C(=O)NO)cc3)c2c1`: the IC50 on Histone deacetylase 5 stood at 1030 nM; on Histone deacetylase 2 it was 1410 nM; on Histone deacetylase 3 (read-out: IC50), 6530 nM; in experiment [1] (read-out: IC50) it was 8230 nM; at Histone deacetylase 1 it was 573 nM; at Histone deacetylase 4 (read-out: IC50), 1980 nM. Further, the results for the IC50 (in experiment [2]; on Histone deacetylase 11; in the experiment on A549) were 64.5 nM, 651 nM and 206 nM, respectively. The inhibition entry in the experiment listed under Homo sapiens was “Active”.
